Among the test systems are MOLT-4 leukemia; SF-268 CNS; HCT-15 colon; HCC-2998 colon; KM12 colon; SN12C renal; SK-MEL-28 melanoma; HS 578T breast; T-47D breast; OVCAR-3 ovarian.
What all share (experiment): NCI tumour cell line growth inhibition, 48 h

Here are results for 19 compounds from PubChem BioAssay (NCI).

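Briefly, cells in 96-well plates were exposed to five compound concentrations for 48 h, and endpoints were estimated by linear interpolation. At the GI50, growth is halved. TGI marks complete inhibition of growth.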

Take `Cc1n(CC(=O)c2ccccc2)nc2sc(N)n[n+]12`: the TGI in the assay on MOLT-4 leukemia, in the assay with SF-268 CNS, in the assay with HCT-15 colon, in the assay on HCC-2998 colon, in the assay on KM12 colon and in the assay on SN12C renal was above 100 µM throughout. Also, the TGI in the assay on SK-MEL-28 melanoma, in the assay on HS 578T breast, in the assay on T-47D breast and with OVCAR-3 ovarian was above 100 µM each time.

On to `O=C(CCCn1ccnc1[N+](=O)[O-])NCCn1ccnc1[N+](=O)[O-]`, for which the TGI with MOLT-4 leukemia, in the assay with SF-268 CNS, with HCT-15 colon, in the assay on HCC-2998 colon, with KM12 colon and with SN12C renal was above 100 µM each time. The TGI in the assay with SK-MEL-28 melanoma, in the assay on HS 578T breast, in the assay on T-47D breast and with OVCAR-3 ovarian was above 100 µM in each case.

Consider `CN(C)CCn1c(=O)c2ccc3c4c(nn3CCN(C)C)c3ccccc3n(c1=O)c24`, for which the TGI stood at 0.0581 µM with MOLT-4 leukemia; 5.12 µM in the assay on SF-268 CNS; 1.39 µM in the assay on HCT-15 colon; 0.534 µM with HCC-2998 colon; 9.91 µM in the assay on KM12 colon; 1.59 µM in the assay with SN12C renal. For the same compound, the TGI in the assay with SK-MEL-28 melanoma came to 6.46 µM; in the assay with HS 578T breast, 12.5 µM; in the assay on T-47D breast, 3.74 µM; in the assay with OVCAR-3 ovarian, 2.63 µM.

`Cc1cc(N=C2C=C(Nc3cc(C)on3)C(=O)c3ccccc32)no1`: the TGI in the assay on MOLT-4 leukemia, in the assay on SF-268 CNS, in the assay on HCT-15 colon, in the assay with HCC-2998 colon, in the assay on KM12 colon and in the assay on SN12C renal was above 100 µM in each case. Also, the TGI with SK-MEL-28 melanoma, with HS 578T breast, in the assay on T-47D breast and in the assay with OVCAR-3 ovarian was above 100 µM in each case.

Regarding `C/C(N=Nc1nc2ccccc2o1)=C1/C=CC=CN1O`, the TGI was 6.3 µM in the assay with MOLT-4 leukemia; above 100 µM with SF-268 CNS; above 100 µM in the assay with HCT-15 colon; 24.5 µM with HCC-2998 colon; above 100 µM in the assay on KM12 colon; above 100 µM in the assay on SN12C renal. The TGI was above 100 µM with SK-MEL-28 melanoma, above 100 µM with HS 578T breast, above 100 µM in the assay with T-47D breast and 7.69 µM in the assay with OVCAR-3 ovarian.

As to `NC(=O)NCCCC(NC(=O)OCCCCCn1ccc(=O)[nH]c1=O)C(=O)O` (stereo not drawn), the TGI in the assay with MOLT-4 leukemia, in the assay on SF-268 CNS, with HCT-15 colon, in the assay with HCC-2998 colon, in the assay with KM12 colon and in the assay on SN12C renal was above 100 µM in each case. The TGI in the assay with SK-MEL-28 melanoma, in the assay on HS 578T breast, in the assay on T-47D breast and in the assay on OVCAR-3 ovarian was above 100 µM in each case.

Take `CCOC(=O)C(NCc1cccc(C(F)(F)F)c1)(NC(=O)c1ccccc1)C(F)(F)F` (stereo not drawn): the TGI in the assay with MOLT-4 leukemia, in the assay with SF-268 CNS, in the assay with HCT-15 colon, in the assay with HCC-2998 colon, in the assay on KM12 colon and in the assay with SN12C renal was above 100 µM throughout. Also, the TGI in the assay on SK-MEL-28 melanoma is 63.6 µM; with HS 578T breast, above 100 µM; in the assay with T-47D breast, 80 µM; in the assay on OVCAR-3 ovarian, 82 µM.

`CS(=O)(=O)O.[Ag]`: the TGI in the assay on MOLT-4 leukemia is 5.3 µM; in the assay with SF-268 CNS it was 39.7 µM; with HCT-15 colon, 36.5 µM; with HCC-2998 colon it was 28.8 µM; in the assay on KM12 colon, 89.8 µM; in the assay on SN12C renal, 38.7 µM. Further, the TGI in the assay with SK-MEL-28 melanoma was 35.2 µM; in the assay on HS 578T breast, above 100 µM; with T-47D breast, 5.5 µM; with OVCAR-3 ovarian, 88.5 µM.

For `CC(C)(NC1=NCCO1)c1ccccc1`, the TGI with MOLT-4 leukemia, in the assay with SF-268 CNS, in the assay with HCT-15 colon, in the assay on HCC-2998 colon, in the assay with KM12 colon and in the assay on SN12C renal was above 100 µM throughout. For the same compound, the TGI in the assay with SK-MEL-28 melanoma, in the assay on HS 578T breast, in the assay on T-47D breast and in the assay with OVCAR-3 ovarian was above 100 µM in each case.

Turning to `CCOC(=O)N(C)C1(c2ccccc2)CCN(CCCC(=O)c2ccc(F)cc2)CC1`, the TGI in the assay on MOLT-4 leukemia is above 100 µM; in the assay with SF-268 CNS, above 100 µM; in the assay on HCT-15 colon, above 100 µM; with HCC-2998 colon, 42.3 µM; in the assay with KM12 colon it was 81.1 µM; in the assay on SN12C renal, above 100 µM. Further, the TGI in the assay on SK-MEL-28 melanoma is 47.1 µM; in the assay on HS 578T breast, above 100 µM; in the assay on T-47D breast, above 100 µM; in the assay on OVCAR-3 ovarian, above 100 µM.

In the case of `CC(C)C(C/C=C1\CC(CO)(COC(=O)CC(C(C)C)C(C)C)OC1=O)C(C)C` (stereo not drawn), the TGI in the assay on MOLT-4 leukemia was determined as 21.4 µM; with SF-268 CNS, 27.6 µM; in the assay with HCT-15 colon, 34.9 µM; in the assay with HCC-2998 colon it was 18.7 µM; in the assay on KM12 colon it was 28.6 µM; with SN12C renal, 22.1 µM. Also, the TGI came out at 29.3 µM in the assay on SK-MEL-28 melanoma, 15.8 µM with HS 578T breast, 30.7 µM in the assay on T-47D breast and 30.6 µM in the assay on OVCAR-3 ovarian.

Regarding `CC[C@@H]1CC[C@@H]2[C@H](CC[C@]3(C)[C@@H](OS(=O)(=O)c4ccc(C)cc4)CC[C@@H]23)[C@H]1CO`, the TGI in the assay on MOLT-4 leukemia, with SF-268 CNS, with HCT-15 colon, in the assay with HCC-2998 colon, in the assay with KM12 colon and with SN12C renal was above 100 µM in each case. For the same compound, the TGI in the assay with SK-MEL-28 melanoma, with HS 578T breast, with T-47D breast and in the assay on OVCAR-3 ovarian was above 100 µM each time.

For the compound `CN(c1ccccc1Cl)S(=O)(=O)c1ccccc1[N+](=O)[O-]`, the TGI in the assay with MOLT-4 leukemia, in the assay with SF-268 CNS, with HCT-15 colon, with HCC-2998 colon, in the assay on KM12 colon and with SN12C renal was above 100 µM in each case. Moreover, the TGI in the assay with SK-MEL-28 melanoma, with HS 578T breast, in the assay on T-47D breast and with OVCAR-3 ovarian was above 100 µM in each case.

With `COc1ccc(C2(C3c4cc(OC)c(OC)cc4CCN3C)SCCCS2)cc1O` (stereo not drawn), the TGI in the assay with MOLT-4 leukemia, in the assay on SF-268 CNS, with HCT-15 colon, in the assay with HCC-2998 colon, in the assay with KM12 colon and with SN12C renal was above 100 µM each time. Further, the TGI in the assay with SK-MEL-28 melanoma, in the assay on HS 578T breast, with T-47D breast and with OVCAR-3 ovarian was above 100 µM each time.

Take `CC(C)(C)c1cc(C2COC(=O)COCC(=O)OCCOCCOCCO2)cc(C(C)(C)C)c1O` (stereo not drawn): the TGI in the assay on MOLT-4 leukemia is above 100 µM; in the assay with SF-268 CNS it was 41.3 µM; in the assay with HCT-15 colon it was above 100 µM; with HCC-2998 colon it was 27.9 µM; in the assay on KM12 colon, above 100 µM; in the assay on SN12C renal it was 20.8 µM. The TGI was 38.9 µM in the assay with SK-MEL-28 melanoma, 45.8 µM in the assay with HS 578T breast, above 100 µM in the assay with T-47D breast and above 100 µM with OVCAR-3 ovarian.

On to `O=C(Nc1cccc(-n2ccc3c(NC(=O)c4ccccc4)nccc32)c1)c1cc(N2CCOCC2)cc(C(F)(F)F)c1`, for which the GI50 is 0.907 µM in the assay with MOLT-4 leukemia; 0.264 µM in the assay on SF-268 CNS; 0.0395 µM in the assay with HCT-15 colon; 0.462 µM in the assay with HCC-2998 colon; 0.0628 µM in the assay with KM12 colon; 0.467 µM with SN12C renal. The GI50 in the assay on SK-MEL-28 melanoma was 0.085 µM; in the assay with HS 578T breast it was 0.0621 µM; in the assay with T-47D breast it was above 51.8 µM; in the assay on OVCAR-3 ovarian it was 0.0259 µM. The TGI was above 100 µM in the assay on MOLT-4 leukemia; above 100 µM in the assay on SF-268 CNS; above 100 µM with HCC-2998 colon; above 100 µM in the assay on SN12C renal; above 100 µM with SK-MEL-28 melanoma; 32.6 µM in the assay with HS 578T breast. In addition, the TGI in the assay on T-47D breast is above 100 µM; with OVCAR-3 ovarian, 0.0605 µM.

`CC(C)(C)OC(=O)NCC(=O)N1CCCN(C(=O)CNC(=O)OC(C)(C)C)CC1`: the TGI with MOLT-4 leukemia, in the assay on SF-268 CNS, with HCT-15 colon, with HCC-2998 colon, in the assay with KM12 colon and in the assay on SN12C renal was above 100 µM in each case. Also, the TGI with SK-MEL-28 melanoma, in the assay on HS 578T breast, with T-47D breast and in the assay on OVCAR-3 ovarian was above 100 µM throughout.

For `COc1cc(C(SCc2ccccc2)SCc2ccccc2)ccc1O`, the TGI in the assay with MOLT-4 leukemia, with SF-268 CNS, in the assay on HCT-15 colon, in the assay with HCC-2998 colon, in the assay on KM12 colon and in the assay on SN12C renal was above 10 µM in each case. In addition, the TGI with SK-MEL-28 melanoma, with HS 578T breast, with T-47D breast and in the assay on OVCAR-3 ovarian was above 10 µM each time.

For `NC(=O)CS(=O)CC(N)C(=O)O` (stereo not drawn), the TGI in the assay with MOLT-4 leukemia, in the assay with SF-268 CNS, in the assay on HCT-15 colon, in the assay on HCC-2998 colon, with KM12 colon and with SN12C renal was above 100 µM in each case. For the same compound, the TGI in the assay on SK-MEL-28 melanoma, with HS 578T breast, in the assay on T-47D breast and in the assay on OVCAR-3 ovarian was above 100 µM throughout.
